Experimental data taken from US20080108641A1, “Compounds for treating inflammatory disorders, demyelinating disdorders and cancers” (priority 2006, published 2008).
pIC50: −log10 of the molar value. Like-named read-outs stand apart in the source and are kept apart here.

Assays:
IL-10 = assay: Mediator release, IL-10 (Con A-stimulated PBML, sandwich ELISA); format: cell-based; settings: Homo sapiens
Procedure: In this experiment, test compound and/or vehicle were preincubated with human peripheral blood mononuclear leukocyte (PBML, 1×10^6/ml) in RPMI buffer pH 7.4 for 2 hours. Concanavalin A (Con A, 20 μg/ml) was then added to stimulate the cells overnight in 5% CO2 at 37° C. IL-4 and IL-10 cytokine levels in the conditioned medium were then quantified using a sandwich ELISA kit. Compounds were screened at 10, 1, 0.1, 0.01 and 0.001 μM.

[1] = system: B-lymphocyte cells isolated from the spleen; assay: Cell proliferation, B-Cell + LPS ([3H]thymidine incorporation); format: cell-based, balb/c mice; settings: Mus musculus
Procedure: B-lymphocyte cells isolated from the spleen of balb/c mice weighing 17±1 g were used. Test compound and/or vehicle were incubated with the cells (1.5×10^6/ml) in the presence of 10 μg/ml lipopolysaccharide (LPS) in AIM-V medium pH 7.4 at 37° C. for 24 hours. [^3H]Thymidine (120 nM) was then added for an additional overnight incubation period. Thymidine incorporation was assessed by liquid scintillation counting.
(§1) Test compound-induced suppression of cell proliferation by 50 percent or more (≧50%) relative to vehicle control response indicates significant inhibitory activity.

[2] = system: T-lymphocyte cells isolated from thymus; assay: Cell proliferation, T-Cell + Con A ([3H]thymidine incorporation); format: cell-based, balb/c mice; settings: Mus musculus
Procedure: T-lymphocyte cells isolated from thymus of balb/c mice weighing 17±1 g were used. Test compound and/or vehicle is incubated with the cells (4×10^6/ml) in the presence of 3 μg/mL Concanavalin A (Con A) in AIM-V medium pH 7.4 at 37° C. for 24 hours. [^3H]Thymidine (120 nM) was then added for an additional overnight incubation period. Thymidine incorporation was assessed by liquid scintillation counting. Compounds were screened at 10, 1, 0.1, 0.01 and 0.001 μM.
as §1

[3] = system: Experimental Autoimmune Encephalomyelitis (EAE); assay: Acute stage Experimental Autoimmune Encephalomyelitis (EAE) model, daily dosing
Procedure: Accordingly, three randomized cohorts of guinea pigs with EAE induced by the method of Example 2, were treated, respectively, with 6 mg/kg of Symadex™ (full salt hydrate) and 0.35 mg/kg of mitoxantrone. Animals were treated daily, by intraperitoneal injection, for 15 days, starting on day 7 post immunization. Controls were treated with vehicle. We reasoned that 15 consecutive, 6 mg/kg doses of Symadex™ would represent a level of drug exposure that would be commensurate with the “20 mg/kg every 72 hours” regimen in Example 4 and consistent with a mid level exposure between the 20 mg/kg and the 40 mg/kg schedule given weekly, in Example 2. The mitoxantrone dose was selected to reflect a typical high dose given to rats or mice by daily dosing in the prior art, but allometrically scaled to the guinea pig.

[4] = system: Experimental Autoimmune Encephalomyelitis (EAE); settings: for mean clinical severity score: 20 mg/kg i.p. once a week
[5] = human dose of 540 mg/m^2 body surface area (as free base); cited from earlier work
[6] = 20 mg/kg i.p. weekly for 4, 6 and 8 weeks

Q: Which results are given for `CCN(CC)CCNc1ccc2ncn3c4ccc(O)cc4c(=O)c1c23` [Symadex™]?
A: inhibition at 0.001 µM (IL-10; read-out: % inhibition of IL-10 release, 1 nM, read-out: % Growth Inhibition): 1%; inhibition at 0.01 µM (IL-10; read-out: % inhibition of IL-10 release, 10 nM, read-out: % Growth Inhibition): 16%; inhibition at 0.1 µM (IL-10; read-out: % inhibition of IL-10 release, 0.1 μM, read-out: % Growth Inhibition): 16%; inhibition at 1 µM (IL-10; read-out: % inhibition of IL-10 release, 1 μM, read-out: % Growth Inhibition): 39%; inhibition at 10 µM (IL-10; read-out: % inhibition of IL-10 release, 10 μM, read-out: % Growth Inhibition): 99%; pIC50 (IL-10; IL-10 release): 5.92; pIC50 [1]: 7.42; inhibition at 0.001 µM ([1]; read-out: % Growth Inhibition): 0%; inhibition at 0.01 µM ([1]; read-out: % Growth Inhibition): 38%; inhibition at 0.1 µM ([1]; read-out: % Growth Inhibition): 80%; inhibition at 1 µM ([1]; read-out: % Growth Inhibition): 101%; inhibition at 10 µM ([1]; read-out: % Growth Inhibition): 103%; pIC50 [2]: 7.85; inhibition at 0.001 µM ([2]; read-out: % Growth Inhibition): 10%; inhibition at 0.01 µM ([2]; read-out: % Growth Inhibition): 44%; inhibition at 0.1 µM ([2]; read-out: % Growth Inhibition): 82%; inhibition at 1 µM ([2]; read-out: % Growth Inhibition): 103%; inhibition at 10 µM ([2]; read-out: % Growth Inhibition): 104%; clinical score course (neurological impairment) ([3]; daily i.p. for 15 days from day 7 post immunization, Symadex 6 mg/kg, mitoxantrone 0.35 mg/kg): initial rise in neurological impairment is arrested; statistical significance of therapeutic effect on clinical score vs control (Mann-Whitney rank-sum) ([3]; daily i.p. for 15 days, Symadex 6 mg/kg (p below 0.05), mitoxantrone 0.35 mg/kg): reaches statistical significance; pathology scores: perivascular cuffing (P), myelitis (E) and demyelination (D) vs control ([3]; necropsy after 15 daily doses, p value<0.05 from control): reducing the perivascular cuffing (P), myelitis (E) and demyelination (D); mean clinical severity score ([4]; 4-week treatment cycle (n=14), starting mean 1.3, p 0.0001 vs control): 0.7; mean clinical severity score ([4]; 6 week treatment (n=3), control 1.3, p 0.009): 0.3; B-cell counts vs controls [4, 6]: no significant deviation from controls; CD4 and CD8 T-cell populations [4, 6]: Neither are CD4 or CD8 T-cell populations modulated; total T-cell counts vs vehicle control [4, 6]: no difference; disease course after drug withdrawal ([4]; 20 mg/kg i.p. weekly for 4 weeks, then 4 weeks vehicle, p 0.002 vs control): remained in stable disease; clinical scores / disease progression ([4]; 20 mg/kg i.p., 2 doses 72 hours apart, from 30 days post immunization (n=3), p 0.002 vs control): reversed the progression of disease and restored baseline clinical scores; clinical scores at end of treatment course ([4]; 20 mg/kg i.p., 8 consecutive weekly doses (n=3), p 0.0006 vs control): converges on baseline; time to clinical recovery from the start of treatment ([4]; 40 mg/kg i.p. once a week for 4 weeks): ≤ 2 weeks; clinical progress and pathological findings vs vehicle control ([4]; 20 and 40 mg/kg i.p. once a week for 4 weeks from day 40, p 0.004 (20 mg/kg), 0.001 (40 mg/kg)): profound and substantial change; inflammatory cells in chronic demyelinated plaques ([4]; after prolonged treatment): virtually no remaining inflammatory cells; endogenous remyelination ([4]; chronic-progressive model, after disease progression): effective in permitting endogenous remyelination; scores for meningeal inflammation and perivascular infiltration ([4]; treated groups vs vehicle controls, weekly dosing for 4 weeks): more severe in the treated groups than in vehicle controls; tolerability of single dose [5]: safe and well-tolerated
